Experimental data as given in PMC4979471 (Cell Death Discovery, 2015).
Read-outs that look alike come from different tables or passages of the source.

Columns and labels:
Test in all cases: Kinase selectivity, P33-radiolabeled assay
Assay type in all cases: biochemical
Settings in all cases: 10 μM ATP
[1] = molecular target: T1, CDK4/cyclin D3 (Homo sapiens, UniProt P11802)
T1 construct: purchased Reaction Biology Corp
How it was run: (§1)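 ATP at 10 μM; test article at 10 μM, single point, two replicates. Output is activity as % of DMSO.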

[2] = molecular target: T2, CAMK2g (Homo sapiens, UniProt Q13555)
T2 construct: purchased Reaction Biology Corp
How it was run: as §1

[3] = molecular target: T3, MLK1/MAP3K9 (Homo sapiens, UniProt P80192)
T3 construct: purchased Reaction Biology Corp
How it was run: as §1

[4] = molecular target: T4, FES/FPS (Homo sapiens, UniProt P07332)
T4 construct: purchased Reaction Biology Corp
How it was run: as §1

[5] = molecular target: T5, ERK2/MAPK1 (Homo sapiens, UniProt P28482)
T5 construct: purchased Reaction Biology Corp
How it was run: as §1

[6] = molecular target: T6, PHKg2 (Homo sapiens, UniProt P15735)
T6 construct: purchased Reaction Biology Corp
T6 sequence (P15735 1-406): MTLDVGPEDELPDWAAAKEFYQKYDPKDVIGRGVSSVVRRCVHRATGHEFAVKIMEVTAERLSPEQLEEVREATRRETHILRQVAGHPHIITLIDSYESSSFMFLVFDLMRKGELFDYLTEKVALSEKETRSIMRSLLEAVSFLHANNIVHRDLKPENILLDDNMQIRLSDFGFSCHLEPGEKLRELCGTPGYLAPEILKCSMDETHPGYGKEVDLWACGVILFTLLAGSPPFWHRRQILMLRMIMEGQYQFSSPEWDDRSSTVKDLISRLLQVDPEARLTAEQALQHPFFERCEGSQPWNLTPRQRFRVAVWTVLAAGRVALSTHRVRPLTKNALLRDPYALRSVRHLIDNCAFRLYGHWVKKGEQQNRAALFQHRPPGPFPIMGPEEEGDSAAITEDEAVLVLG
How it was run: as §1

[7] = molecular target: T7, TNK1 (Homo sapiens, UniProt Q13470)
T7 construct: purchased Reaction Biology Corp
T7 sequence (Q13470 1-666): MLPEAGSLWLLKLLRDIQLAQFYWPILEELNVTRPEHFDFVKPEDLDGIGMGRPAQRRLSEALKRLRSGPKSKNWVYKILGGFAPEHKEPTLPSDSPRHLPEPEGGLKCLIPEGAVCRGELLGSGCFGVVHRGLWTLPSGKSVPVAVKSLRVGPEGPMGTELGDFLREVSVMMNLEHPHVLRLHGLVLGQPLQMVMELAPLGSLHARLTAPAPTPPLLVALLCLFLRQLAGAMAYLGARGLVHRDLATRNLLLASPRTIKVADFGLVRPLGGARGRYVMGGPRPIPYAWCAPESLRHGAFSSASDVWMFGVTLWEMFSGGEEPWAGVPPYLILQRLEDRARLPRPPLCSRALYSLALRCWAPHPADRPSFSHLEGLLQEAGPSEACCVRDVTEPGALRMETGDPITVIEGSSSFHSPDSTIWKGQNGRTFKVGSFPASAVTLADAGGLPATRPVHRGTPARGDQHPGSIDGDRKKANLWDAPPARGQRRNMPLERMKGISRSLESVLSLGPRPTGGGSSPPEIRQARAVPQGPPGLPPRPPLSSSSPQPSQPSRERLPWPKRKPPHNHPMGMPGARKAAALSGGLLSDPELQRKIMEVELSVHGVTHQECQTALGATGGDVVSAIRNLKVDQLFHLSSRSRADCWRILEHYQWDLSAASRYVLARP
How it was run: as §1

[8] = molecular target: T8, DRAK1/STK17A (Homo sapiens, UniProt Q9UEE5)
T8 construct: purchased Reaction Biology Corp
T8 sequence (Q9UEE5 1-414): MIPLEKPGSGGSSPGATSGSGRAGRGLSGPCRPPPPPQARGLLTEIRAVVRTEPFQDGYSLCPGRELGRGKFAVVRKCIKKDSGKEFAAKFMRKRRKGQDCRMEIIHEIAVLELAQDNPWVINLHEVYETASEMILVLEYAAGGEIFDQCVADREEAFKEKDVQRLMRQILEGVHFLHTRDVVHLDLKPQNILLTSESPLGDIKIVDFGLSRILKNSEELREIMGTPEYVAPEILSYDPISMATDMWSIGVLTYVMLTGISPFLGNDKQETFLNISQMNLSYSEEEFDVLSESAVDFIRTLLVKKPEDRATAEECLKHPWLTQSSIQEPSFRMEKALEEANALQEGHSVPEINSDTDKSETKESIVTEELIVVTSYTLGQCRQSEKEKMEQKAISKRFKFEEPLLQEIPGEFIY
How it was run: as §1

[9] = molecular target: T9, IRAK1 (Homo sapiens, UniProt P51617)
T9 construct: purchased Reaction Biology Corp
How it was run: as §1

[10] = read-out: % Enzyme Activity (relative to DMSO controls) AVG
[11] = read-out: % Enzyme Activity (relative to DMSO controls) Data 1
[12] = read-out: % Enzyme Activity (relative to DMSO controls) Data 2

T3 sequence (P80192 whole entry): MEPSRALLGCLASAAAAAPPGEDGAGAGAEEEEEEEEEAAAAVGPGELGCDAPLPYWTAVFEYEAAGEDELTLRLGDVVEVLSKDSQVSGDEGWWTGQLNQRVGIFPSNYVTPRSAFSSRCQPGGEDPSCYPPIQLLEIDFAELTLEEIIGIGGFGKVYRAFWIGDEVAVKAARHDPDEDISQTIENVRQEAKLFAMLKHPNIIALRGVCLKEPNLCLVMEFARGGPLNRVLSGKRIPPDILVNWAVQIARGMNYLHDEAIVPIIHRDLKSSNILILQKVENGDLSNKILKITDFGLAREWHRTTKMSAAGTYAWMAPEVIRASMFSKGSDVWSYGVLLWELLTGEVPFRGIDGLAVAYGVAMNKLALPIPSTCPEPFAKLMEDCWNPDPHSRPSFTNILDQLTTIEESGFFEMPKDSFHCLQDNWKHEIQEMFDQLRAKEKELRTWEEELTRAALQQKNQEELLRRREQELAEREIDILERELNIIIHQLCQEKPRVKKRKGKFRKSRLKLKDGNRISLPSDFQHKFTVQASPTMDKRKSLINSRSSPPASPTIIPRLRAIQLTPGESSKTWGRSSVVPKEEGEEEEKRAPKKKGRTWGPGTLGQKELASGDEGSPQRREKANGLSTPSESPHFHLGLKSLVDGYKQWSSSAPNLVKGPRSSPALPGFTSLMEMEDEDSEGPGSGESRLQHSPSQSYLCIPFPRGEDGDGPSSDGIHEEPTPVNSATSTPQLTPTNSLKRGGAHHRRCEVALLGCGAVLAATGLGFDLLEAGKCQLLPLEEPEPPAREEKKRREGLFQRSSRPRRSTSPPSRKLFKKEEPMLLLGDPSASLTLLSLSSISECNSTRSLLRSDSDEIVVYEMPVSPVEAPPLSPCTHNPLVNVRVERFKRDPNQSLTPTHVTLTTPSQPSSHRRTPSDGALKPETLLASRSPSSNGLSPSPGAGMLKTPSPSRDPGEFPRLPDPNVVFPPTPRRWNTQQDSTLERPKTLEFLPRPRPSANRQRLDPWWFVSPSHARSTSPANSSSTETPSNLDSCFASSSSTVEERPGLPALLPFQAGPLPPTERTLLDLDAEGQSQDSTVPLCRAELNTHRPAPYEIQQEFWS
T2 sequence (Q13555 whole entry): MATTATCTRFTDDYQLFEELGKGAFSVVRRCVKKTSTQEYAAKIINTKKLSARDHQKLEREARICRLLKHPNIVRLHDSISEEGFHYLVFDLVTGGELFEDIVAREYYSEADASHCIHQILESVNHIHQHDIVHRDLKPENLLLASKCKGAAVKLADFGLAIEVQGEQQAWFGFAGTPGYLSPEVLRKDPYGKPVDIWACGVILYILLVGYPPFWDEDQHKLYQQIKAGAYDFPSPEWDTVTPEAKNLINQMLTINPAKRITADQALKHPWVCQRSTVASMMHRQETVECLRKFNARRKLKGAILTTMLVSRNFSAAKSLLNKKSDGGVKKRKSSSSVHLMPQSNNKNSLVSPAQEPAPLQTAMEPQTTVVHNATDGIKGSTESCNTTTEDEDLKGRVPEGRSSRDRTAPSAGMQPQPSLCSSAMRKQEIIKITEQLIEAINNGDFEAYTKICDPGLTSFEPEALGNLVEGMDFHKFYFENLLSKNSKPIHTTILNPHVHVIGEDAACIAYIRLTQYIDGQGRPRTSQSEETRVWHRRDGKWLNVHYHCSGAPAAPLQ
T1 sequence (P11802 whole entry): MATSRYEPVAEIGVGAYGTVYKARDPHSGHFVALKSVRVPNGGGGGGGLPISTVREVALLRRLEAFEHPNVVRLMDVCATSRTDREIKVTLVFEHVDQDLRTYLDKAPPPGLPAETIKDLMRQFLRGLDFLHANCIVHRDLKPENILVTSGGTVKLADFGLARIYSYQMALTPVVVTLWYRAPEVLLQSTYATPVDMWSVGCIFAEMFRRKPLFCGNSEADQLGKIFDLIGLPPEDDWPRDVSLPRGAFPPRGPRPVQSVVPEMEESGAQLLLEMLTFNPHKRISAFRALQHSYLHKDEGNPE
T1 sequence (P30281 whole entry partner): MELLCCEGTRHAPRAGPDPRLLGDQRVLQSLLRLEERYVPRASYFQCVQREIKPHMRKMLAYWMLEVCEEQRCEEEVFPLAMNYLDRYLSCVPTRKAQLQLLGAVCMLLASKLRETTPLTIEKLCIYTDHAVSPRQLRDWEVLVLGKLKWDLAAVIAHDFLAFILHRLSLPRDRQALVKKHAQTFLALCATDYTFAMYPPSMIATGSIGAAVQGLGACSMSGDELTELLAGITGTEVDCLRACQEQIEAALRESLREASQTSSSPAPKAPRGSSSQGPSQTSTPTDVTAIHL
T9 sequence (P51617 whole entry): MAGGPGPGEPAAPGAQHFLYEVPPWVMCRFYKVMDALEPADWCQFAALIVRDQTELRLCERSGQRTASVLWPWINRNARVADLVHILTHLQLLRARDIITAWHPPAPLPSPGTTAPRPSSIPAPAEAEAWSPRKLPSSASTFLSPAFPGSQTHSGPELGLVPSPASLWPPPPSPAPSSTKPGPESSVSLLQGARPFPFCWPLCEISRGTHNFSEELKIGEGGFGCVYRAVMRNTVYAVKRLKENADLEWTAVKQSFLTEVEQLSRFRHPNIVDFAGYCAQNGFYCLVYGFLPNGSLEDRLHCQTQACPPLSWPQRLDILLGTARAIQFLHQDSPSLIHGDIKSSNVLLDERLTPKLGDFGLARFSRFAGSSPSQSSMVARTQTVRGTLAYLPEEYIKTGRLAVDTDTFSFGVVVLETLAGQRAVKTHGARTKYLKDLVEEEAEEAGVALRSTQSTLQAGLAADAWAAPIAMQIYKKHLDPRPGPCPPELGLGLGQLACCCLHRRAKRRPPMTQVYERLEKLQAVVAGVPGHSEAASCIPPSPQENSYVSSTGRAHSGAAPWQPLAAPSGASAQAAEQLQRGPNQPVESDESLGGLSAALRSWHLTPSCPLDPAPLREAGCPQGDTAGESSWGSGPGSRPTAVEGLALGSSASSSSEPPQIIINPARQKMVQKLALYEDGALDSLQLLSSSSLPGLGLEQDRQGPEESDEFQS
T5 sequence (P28482 whole entry): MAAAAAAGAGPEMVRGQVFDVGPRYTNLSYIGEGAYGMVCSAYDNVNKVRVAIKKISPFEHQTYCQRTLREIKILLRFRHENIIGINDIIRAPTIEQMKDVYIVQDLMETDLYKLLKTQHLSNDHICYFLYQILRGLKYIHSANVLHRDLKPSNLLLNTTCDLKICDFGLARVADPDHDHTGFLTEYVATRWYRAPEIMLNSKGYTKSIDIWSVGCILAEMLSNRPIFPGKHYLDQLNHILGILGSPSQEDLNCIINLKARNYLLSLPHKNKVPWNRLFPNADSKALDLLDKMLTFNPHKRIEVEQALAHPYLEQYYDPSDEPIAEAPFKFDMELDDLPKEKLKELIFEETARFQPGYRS
T4 sequence (P07332 whole entry): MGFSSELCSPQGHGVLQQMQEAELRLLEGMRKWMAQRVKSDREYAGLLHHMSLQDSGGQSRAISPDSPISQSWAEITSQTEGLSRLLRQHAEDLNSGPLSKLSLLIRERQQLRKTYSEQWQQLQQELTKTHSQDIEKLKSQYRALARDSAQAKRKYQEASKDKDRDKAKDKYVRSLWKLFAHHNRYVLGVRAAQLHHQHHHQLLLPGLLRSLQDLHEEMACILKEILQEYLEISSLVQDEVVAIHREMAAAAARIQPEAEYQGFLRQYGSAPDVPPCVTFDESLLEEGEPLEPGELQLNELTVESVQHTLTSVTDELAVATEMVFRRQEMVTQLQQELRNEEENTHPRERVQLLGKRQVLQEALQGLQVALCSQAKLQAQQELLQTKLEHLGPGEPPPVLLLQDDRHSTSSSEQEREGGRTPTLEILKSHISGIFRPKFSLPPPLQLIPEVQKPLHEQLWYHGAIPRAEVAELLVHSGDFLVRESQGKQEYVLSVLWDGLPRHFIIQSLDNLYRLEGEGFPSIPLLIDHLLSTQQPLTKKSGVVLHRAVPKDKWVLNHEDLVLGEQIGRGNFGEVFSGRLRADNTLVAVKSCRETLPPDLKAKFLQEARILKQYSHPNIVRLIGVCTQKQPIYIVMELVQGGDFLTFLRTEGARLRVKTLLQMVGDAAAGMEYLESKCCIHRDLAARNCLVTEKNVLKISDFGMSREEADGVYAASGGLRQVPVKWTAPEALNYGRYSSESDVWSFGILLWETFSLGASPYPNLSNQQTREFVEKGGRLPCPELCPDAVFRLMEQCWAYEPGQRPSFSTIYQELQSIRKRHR

In the case of CC(C)(C)C(=O)N1N=CC[C@H]1c1ccccc1 [GSK′963], the remaining activity at 10 µM [1, 10] is reported as 96.2%, the remaining activity at 10 µM [1, 11] is reported as 98.3% and the remaining activity at 10 µM [1, 12] is reported as 94.1%. It also gave a remaining activity at 10 µM [2, 10] of 115%, a remaining activity at 10 µM [2, 11] of 112% and a remaining activity at 10 µM [2, 12] of 118%. It also gave a remaining activity at 10 µM [3, 10] of 110%, a remaining activity at 10 µM [3, 11] of 108% and a remaining activity at 10 µM [3, 12] of 112%. It also gave a remaining activity at 10 µM [4, 10] of 91.3%, a remaining activity at 10 µM [4, 11] of 93.2% and a remaining activity at 10 µM [4, 12] of 89.5%. The remaining activity at 10 µM [5, 10] was 97.5%, the remaining activity at 10 µM [5, 11] was 96.5% and the remaining activity at 10 µM [5, 12] was 98.5%. It also gave a remaining activity at 10 µM [6, 10] of 110%, a remaining activity at 10 µM [6, 11] of 111% and a remaining activity at 10 µM [6, 12] of 110%. For the same compound, the remaining activity at 10 µM [7, 10] was 98.8%, the remaining activity at 10 µM [7, 11] was 100% and the remaining activity at 10 µM [7, 12] was 97.2%. The remaining activity at 10 µM [8, 10] was 99.7%, the remaining activity at 10 µM [8, 11] was 98.1% and the remaining activity at 10 µM [8, 12] was 101%. It also gave a remaining activity at 10 µM [9, 10] of 115%, a remaining activity at 10 µM [9, 11] of 114% and a remaining activity at 10 µM [9, 12] of 116%.
